Data taken from ChEMBL document CHEMBL6109104, “Synthesis and antibacterial evaluations of novel vancomycin analogues targeting bacteria membrane to combat Gram-negative infections” (Eur J Med Chem, 2025).

Key:
Format in all cases: functional
Settings in all cases: time 16-18 hrs
[1] = tested on: Acinetobacter baumannii; assay: Antibacterial activity against Acinetobacter baumannii ATCC19606 incubated for 16 to 18 hrs by muller hinton broth based microplate reader analysis
[2] = tested on: Staphylococcus aureus; assay: Antibacterial activity vancomycin-intermediate resistant Staphylococcus aureus incubated for 16 to 18 hrs by muller hinton broth based microplate reader analysis
[3] = tested on: Staphylococcus aureus; assay: Antibacterial activity against methicillin-resistant Staphylococcus aureus USA300 incubated for 16 to 18 hrs by muller hinton broth based microplate reader analysis
[4] = tested on: Escherichia coli; assay: Antibacterial activity against Escherichia coli ATCC25922 incubated for 16 to 18 hrs by muller hinton broth based microplate reader analysis
[5] = tested on: Escherichia coli; assay: Antibacterial activity against Escherichia coli ATCC35150 incubated for 16 to 18 hrs by muller hinton broth based microplate reader analysis
[6] = tested on: Acinetobacter baumannii; assay: Antibacterial activity against Acinetobacter baumannii ATCC17978 incubated for 16 to 18 hrs by muller hinton broth based microplate reader analysis

In the case of `CN[C@H](CC(C)C)C(=O)N[C@H]1C(=O)N[C@@H](CC(N)=O)C(=O)N[C@H]2C(=O)N[C@H]3C(=O)N[C@H](C(=O)N[C@H](C(=O)O)c4cc(O)cc(O)c4-c4cc3ccc4O)[C@H](O)c3ccc(c(Cl)c3)Oc3cc2cc(c3O[C@@H]2O[C@H](CO)[C@@H](O)[C@H](O)[C@H]2O[C@H]2C[C@](C)(NC(=O)CCCCCCCCCCC[n+]3cccc(C(C)=O)c3)[C@H](O)[C@H](C)O2)Oc2ccc(cc2Cl)[C@H]1O.[Br-]`, the MIC [1] is reported as > 128 µg/mL, the MIC [2] is reported as 64 µg/mL and the MIC [3] is reported as 4 µg/mL. For the same compound, the MIC [4] was > 128 µg/mL, the MIC [5] was > 128 µg/mL and the MIC [6] was > 128 µg/mL.
With `CN[C@H](CC(C)C)C(=O)N[C@H]1C(=O)N[C@@H](CC(N)=O)C(=O)N[C@H]2C(=O)N[C@H]3C(=O)N[C@H](C(=O)N[C@H](C(=O)O)c4cc(O)cc(O)c4-c4cc3ccc4O)[C@H](O)c3ccc(c(Cl)c3)Oc3cc2cc(c3O[C@@H]2O[C@H](CO)[C@@H](O)[C@H](O)[C@H]2O[C@H]2C[C@](C)(NC(=O)CCCCCCC[n+]3ccc(C)cc3)[C@H](O)[C@H](C)O2)Oc2ccc(cc2Cl)[C@H]1O.[Br-]` the MIC [1] was > 128 µg/mL, the MIC [2] was > 128 µg/mL and the MIC [3] was 8 µg/mL. For the same compound, the MIC [4] was > 128 µg/mL, the MIC [5] was > 128 µg/mL and the MIC [6] was > 128 µg/mL.
For `CN[C@H](CC(C)C)C(=O)N[C@H]1C(=O)N[C@@H](CC(N)=O)C(=O)N[C@H]2C(=O)N[C@H]3C(=O)N[C@H](C(=O)N[C@H](C(=O)O)c4cc(O)cc(O)c4-c4cc3ccc4O)[C@H](O)c3ccc(c(Cl)c3)Oc3cc2cc(c3O[C@@H]2O[C@H](CO)[C@@H](O)[C@H](O)[C@H]2O[C@H]2C[C@](C)(NC(=O)CCCCCCCCCCC[n+]3ccc(N)cc3)[C@H](O)[C@H](C)O2)Oc2ccc(cc2Cl)[C@H]1O.O=C(O)C(F)(F)F.[Br-]`, the MIC [1] was > 128 µg/mL, the MIC [2] was 32 µg/mL and the MIC [3] was 1 µg/mL. The MIC [4] was > 128 µg/mL, the MIC [5] was > 128 µg/mL and the MIC [6] was > 128 µg/mL.
With `CN[C@H](CC(C)C)C(=O)N[C@H]1C(=O)N[C@@H](CC(N)=O)C(=O)N[C@H]2C(=O)N[C@H]3C(=O)N[C@H](C(=O)N[C@H](C(=O)O)c4cc(O)cc(O)c4-c4cc3ccc4O)[C@H](O)c3ccc(c(Cl)c3)Oc3cc2cc(c3O[C@@H]2O[C@H](CO)[C@@H](O)[C@H](O)[C@H]2O[C@H]2C[C@](C)(NC(=O)CCCCCCCCC[n+]3ccc(C)cc3)[C@H](O)[C@H](C)O2)Oc2ccc(cc2Cl)[C@H]1O.[Br-]` the MIC [1] was > 128 µg/mL, the MIC [2] was > 128 µg/mL and the MIC [3] was 8 µg/mL. For the same compound, the MIC [4] was > 128 µg/mL, the MIC [5] was > 128 µg/mL and the MIC [6] was > 128 µg/mL.
Compound `CCCCCCCCCC[N+]1(C)CCN(C(=O)[C@H]2NC(=O)[C@H]3NC(=O)[C@H](NC(=O)[C@@H]4NC(=O)[C@H](CC(N)=O)NC(=O)[C@H](NC(=O)[C@@H](CC(C)C)NC)[C@H](O)c5ccc(c(Cl)c5)Oc5cc4cc(c5O[C@@H]4O[C@H](CO)[C@@H](O)[C@H](O)[C@H]4O[C@H]4C[C@](C)(N)[C@H](O)[C@H](C)O4)Oc4ccc(cc4Cl)[C@H]3O)c3ccc(O)c(c3)-c3c(O)cc(O)cc32)CC1.[Br-]` (stereo in doubt) has an MIC [1] of 32 µg/mL, an MIC [2] of 1 µg/mL and an MIC [3] of 1 µg/mL. The MIC [4] was 16 µg/mL, the MIC [5] was 16 µg/mL and the MIC [6] was 32 µg/mL.
`CCCCCCCCCC[n+]1ccc(C(=O)NCCNC(=O)[C@H]2NC(=O)[C@H]3NC(=O)[C@H](NC(=O)[C@@H]4NC(=O)[C@H](CC(N)=O)NC(=O)[C@H](NC(=O)[C@@H](CC(C)C)NC)[C@H](O)c5ccc(c(Cl)c5)Oc5cc4cc(c5O[C@@H]4O[C@H](CO)[C@@H](O)[C@H](O)[C@H]4O[C@H]4C[C@](C)(N)[C@H](O)[C@H](C)O4)Oc4ccc(cc4Cl)[C@H]3O)c3ccc(O)c(c3)-c3c(O)cc(O)cc32)cc1.[Br-]` gave an MIC [1] of 16 µg/mL, an MIC [2] of 64 µg/mL and an MIC [3] of 2 µg/mL. For the same compound, the MIC [4] was > 128 µg/mL, the MIC [5] was > 128 µg/mL and the MIC [6] was 32 µg/mL.
